Laboratory results reported in ChEMBL document CHEMBL1201862, “PubChem BioAssay data set” (2004).
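Results reflect a 48-hour exposure of cells in 96-well plates to compound at five concentrations. GI50 = concentration required for 50% inhibition of growth.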 Calls of active or inactive are those of the source. No stated cut-off is given here; in the data, active = GI50 up to about 1.1 µM and inactive = higher.

Assays:
Assay in all cases: NCI tumour cell line growth inhibition, 48 h
786-0 = system: 786-0
MDA-MB-435 = system: MDA-MB-435
KM12 = system: KM12
OVCAR-5 = system: OVCAR-5
Malme-3M = system: Malme-3M
SN12C = system: SN12C
NCI/ADR-RES = system: NCI/ADR-RES
UACC-257 = system: UACC-257
U-251 = system: U-251
SNB-75 = system: SNB-75
COLO 205 = system: COLO 205
Hs-578T = system: Hs-578T
HCT-116 = system: HCT-116
TK-10 = system: TK-10
IGROV-1 = system: IGROV-1
HCC 2998 = system: HCC 2998
K562 = system: K562
SF-539 = system: SF-539
NCI-H226 = system: NCI-H226
HT-29 = system: HT-29

| Structure (SMILES) | GI50 (786-0) | GI50 (MDA-MB-435) | GI50 (KM12) | GI50 (OVCAR-5) | GI50 (Malme-3M) | GI50 (SN12C) | GI50 (NCI/ADR-RES) | GI50 (UACC-257) | GI50 (U-251) | GI50 (SNB-75) | GI50 (COLO 205) | GI50 (Hs-578T) | GI50 (HCT-116) | GI50 (TK-10) | GI50 (IGROV-1) | GI50 (HCC 2998) | GI50 (K562) | GI50 (SF-539) | GI50 (NCI-H226) | GI50 (HT-29) |
| --- | --- | --- | --- | --- | --- | --- | --- | --- | --- | --- | --- | --- | --- | --- | --- | --- | --- | --- | --- | --- |
| O=[N+]([O-])c1ccc(-[n+]2ccc3ccccc3c2)c([N+](=O)[O-])c1 | 1.73 µM (inactive) | 2.5 µM (inactive) | 12.3 µM (inactive) | 11.7 µM (inactive) | 3.94 µM (inactive) | 2.69 µM (inactive) | 3.28 µM (inactive) | 1.81 µM (inactive) | 5.68 µM (inactive) | 3.14 µM (inactive) | 2.55 µM (inactive) | 7.6 µM (inactive) | 2.35 µM (inactive) | 1.85 µM (inactive) | 3.1 µM (inactive) | 13.7 µM (inactive) | 1.55 µM (inactive) | 5.21 µM (inactive) | 16.2 µM (inactive) | 2.33 µM (inactive) |
| O=C1/C(=C\c2ccc([N+](=O)[O-])cc2)CS(=O)(=O)C/C1=C/c1ccc([N+](=O)[O-])cc1 | 0.149 µM (active) | 0.358 µM (active) | 0.327 µM (active) | 1.36 µM (inactive) | 0.41 µM (active) | – | 0.161 µM (active) | 1.81 µM (inactive) | 0.298 µM (active) | 15.5 µM (inactive) | 0.188 µM (active) | 1.35 µM (inactive) | 0.288 µM (active) | 0.787 µM (active) | 0.641 µM (active) | 0.247 µM (active) | – | 0.189 µM (active) | 2.83 µM (inactive) | 0.357 µM (active) |
| O=C(CSc1ncccn1)N/N=C/c1ccccc1OCc1ccccc1 | 34.6 µM (inactive) | 4.33 µM (inactive) | 28.4 µM (inactive) | > 100 µM (inactive) | 32.4 µM (inactive) | 27.2 µM (inactive) | 25.9 µM (inactive) | 21 µM (inactive) | 26.8 µM (inactive) | 21.5 µM (inactive) | 19.2 µM (inactive) | 37.8 µM (inactive) | 23 µM (inactive) | 23.4 µM (inactive) | 28.4 µM (inactive) | 27.8 µM (inactive) | 20.1 µM (inactive) | 20.8 µM (inactive) | 20.6 µM (inactive) | 34.1 µM (inactive) |
| CCCNC(=O)CCC(C)[C@H]1CCC2C3C(C[C@H](OC(C)=O)[C@@]21C)[C@@]1(C)CCC2(C[C@H]1C[C@H]3OC(C)=O)OOC1(CCC(C)CC1)OO2 (stereo not given in full) | 16.2 µM (inactive) | 18.9 µM (inactive) | 5.52 µM (inactive) | 29.2 µM (inactive) | 18.6 µM (inactive) | 43.6 µM (inactive) | 16.6 µM (inactive) | 23.2 µM (inactive) | 14.8 µM (inactive) | 23 µM (inactive) | 14.8 µM (inactive) | 31 µM (inactive) | 32.1 µM (inactive) | 28.7 µM (inactive) | 1.87 µM (inactive) | 40.1 µM (inactive) | 33.2 µM (inactive) | 16.7 µM (inactive) | 55.3 µM (inactive) | 36.9 µM (inactive) |
| COc1ccc(C2SCC(=O)N2c2ccc(-n3c(-c4ccccc4)nc4ccccc4c3=O)cc2)cc1 (stereo not given) | > 100 µM (inactive) | > 100 µM (inactive) | 90.8 µM (inactive) | > 100 µM (inactive) | – | > 100 µM (inactive) | 8.89 µM (inactive) | > 100 µM (inactive) | > 100 µM (inactive) | 15.8 µM (inactive) | > 100 µM (inactive) | > 10 µM (inactive) | > 100 µM (inactive) | > 100 µM (inactive) | > 100 µM (inactive) | 60.3 µM (inactive) | > 100 µM (inactive) | > 100 µM (inactive) | > 100 µM (inactive) | > 100 µM (inactive) |
| O=c1[nH]c2nc3ccccc3c(=O)n2/c1=C/c1cccs1 | > 100 µM (inactive) | > 100 µM (inactive) | 70.3 µM (inactive) | > 100 µM (inactive) | > 100 µM (inactive) | > 100 µM (inactive) | > 100 µM (inactive) | > 100 µM (inactive) | > 100 µM (inactive) | 20.5 µM (inactive) | > 100 µM (inactive) | 67 µM (inactive) | > 100 µM (inactive) | > 100 µM (inactive) | > 100 µM (inactive) | > 100 µM (inactive) | > 100 µM (inactive) | > 100 µM (inactive) | > 100 µM (inactive) | > 100 µM (inactive) |
| OC(c1cccnc1)C(F)(F)c1nc2ccccc2o1 (stereo not given) | > 100 µM (inactive) | > 100 µM (inactive) | > 100 µM (inactive) | – | – | – | > 100 µM (inactive) | > 100 µM (inactive) | > 100 µM (inactive) | > 100 µM (inactive) | > 100 µM (inactive) | > 100 µM (inactive) | > 100 µM (inactive) | > 100 µM (inactive) | > 100 µM (inactive) | > 100 µM (inactive) | 56.5 µM (inactive) | > 100 µM (inactive) | > 100 µM (inactive) | > 100 µM (inactive) |
| COc1ccc(C(=O)/C=C/c2ccc(OCC#N)cc2)cc1 | 42.2 µM (inactive) | 24.7 µM (inactive) | 17.5 µM (inactive) | > 100 µM (inactive) | 20.5 µM (inactive) | 19.9 µM (inactive) | 20.9 µM (inactive) | 38.9 µM (inactive) | 17.4 µM (inactive) | 77.1 µM (inactive) | 21.7 µM (inactive) | 27.7 µM (inactive) | 12.2 µM (inactive) | 38.3 µM (inactive) | > 10 µM (inactive) | 17.3 µM (inactive) | 28.2 µM (inactive) | 20.4 µM (inactive) | 24.7 µM (inactive) | 33.3 µM (inactive) |
| CN(C)Cc1cc(C=O)cc(CN(C)C)c1O | > 100 µM (inactive) | > 100 µM (inactive) | > 100 µM (inactive) | – | > 100 µM (inactive) | > 100 µM (inactive) | > 100 µM (inactive) | > 100 µM (inactive) | > 100 µM (inactive) | > 100 µM (inactive) | > 100 µM (inactive) | > 100 µM (inactive) | > 100 µM (inactive) | > 100 µM (inactive) | > 100 µM (inactive) | > 100 µM (inactive) | > 100 µM (inactive) | > 100 µM (inactive) | > 100 µM (inactive) | > 100 µM (inactive) |
| CCOP(=O)(OCC)OC1CC(n2cnc3c(N(CC)CC)ncnc32)OC1CO[Si](C)(C)C(C)(C)C (stereo not given) | 16.1 µM (inactive) | 17.3 µM (inactive) | 19.7 µM (inactive) | 19 µM (inactive) | 22.4 µM (inactive) | 19.4 µM (inactive) | 20.8 µM (inactive) | 16.5 µM (inactive) | 15.1 µM (inactive) | 11.1 µM (inactive) | 18.5 µM (inactive) | 22 µM (inactive) | 16.8 µM (inactive) | 18.3 µM (inactive) | 16.9 µM (inactive) | 23.2 µM (inactive) | 17.8 µM (inactive) | 19.1 µM (inactive) | 19.2 µM (inactive) | 16.6 µM (inactive) |
| Clc1ccc(Nc2nnc(CNc3ccc(-c4nnc(Nc5ccc(Cl)cc5)o4)cc3)o2)cc1 | 8 µM (inactive) | 12.9 µM (inactive) | 8.36 µM (inactive) | 19.6 µM (inactive) | 14.7 µM (inactive) | 16 µM (inactive) | 29.7 µM (inactive) | 20.3 µM (inactive) | 8.71 µM (inactive) | 24.8 µM (inactive) | 19.8 µM (inactive) | 17.8 µM (inactive) | 12.2 µM (inactive) | 14 µM (inactive) | 14.1 µM (inactive) | 5.14 µM (inactive) | 0.504 µM (active) | 18.6 µM (inactive) | 20.9 µM (inactive) | 12.2 µM (inactive) |
| OC1(c2ccccc2)c2ccccc2N=C2NCCN21 (stereo not given) | 72.9 µM (inactive) | > 100 µM (inactive) | > 100 µM (inactive) | > 100 µM (inactive) | – | 82.8 µM (inactive) | > 100 µM (inactive) | 31.1 µM (inactive) | 91.8 µM (inactive) | 91.4 µM (inactive) | 32.9 µM (inactive) | > 100 µM (inactive) | 83.9 µM (inactive) | 37.4 µM (inactive) | > 100 µM (inactive) | 16.3 µM (inactive) | – | > 100 µM (inactive) | > 100 µM (inactive) | 74.6 µM (inactive) |
| O=C(O)CN(CCNC(=O)OCC1c2ccccc2-c2ccccc21)CCNC(=O)OCC1c2ccccc2-c2ccccc21 | 20.1 µM (inactive) | 19.1 µM (inactive) | 18.6 µM (inactive) | 33.3 µM (inactive) | 22.3 µM (inactive) | 25 µM (inactive) | 45.2 µM (inactive) | 29.2 µM (inactive) | 20.1 µM (inactive) | 29.6 µM (inactive) | 20.8 µM (inactive) | 43.9 µM (inactive) | 17.7 µM (inactive) | 29.1 µM (inactive) | 20.6 µM (inactive) | 35.6 µM (inactive) | 19 µM (inactive) | 25.4 µM (inactive) | 33.3 µM (inactive) | 17.5 µM (inactive) |
| c1ccc(-c2nn(-c3ccccc3)[n+](-c3ccccc3)n2)cc1 [TETRAZOLIUM RED] | 14.3 µM (inactive) | 11.1 µM (inactive) | 11.3 µM (inactive) | 35.7 µM (inactive) | 0.394 µM (active) | 9.59 µM (inactive) | > 100 µM (inactive) | 2.85 µM (inactive) | 8.97 µM (inactive) | > 67.6 µM (inactive) | – | 31.6 µM (inactive) | 6.5 µM (inactive) | 43 µM (inactive) | 3.1 µM (inactive) | 1.53 µM (inactive) | 18.6 µM (inactive) | 33 µM (inactive) | 24.5 µM (inactive) | 18.6 µM (inactive) |
